# Measurements published in PMC10455244, “Alpha-Mangostin: A Potent Inhibitor of TRPV3 and Pro-Inflammatory Cytokine Secretion in Keratinocytes” (International Journal of Molecular Sciences, 2023).
# Target: T1, TRPV3 (G573S) (Homo sapiens, UniProt Q8NET8, G573S)
# T1 construct: host or cells: HEK 293T (transient transfection, pEGFP-N1 co-transfected as a marker)
# T1 sequence (Q8NET8 1-790 G573S): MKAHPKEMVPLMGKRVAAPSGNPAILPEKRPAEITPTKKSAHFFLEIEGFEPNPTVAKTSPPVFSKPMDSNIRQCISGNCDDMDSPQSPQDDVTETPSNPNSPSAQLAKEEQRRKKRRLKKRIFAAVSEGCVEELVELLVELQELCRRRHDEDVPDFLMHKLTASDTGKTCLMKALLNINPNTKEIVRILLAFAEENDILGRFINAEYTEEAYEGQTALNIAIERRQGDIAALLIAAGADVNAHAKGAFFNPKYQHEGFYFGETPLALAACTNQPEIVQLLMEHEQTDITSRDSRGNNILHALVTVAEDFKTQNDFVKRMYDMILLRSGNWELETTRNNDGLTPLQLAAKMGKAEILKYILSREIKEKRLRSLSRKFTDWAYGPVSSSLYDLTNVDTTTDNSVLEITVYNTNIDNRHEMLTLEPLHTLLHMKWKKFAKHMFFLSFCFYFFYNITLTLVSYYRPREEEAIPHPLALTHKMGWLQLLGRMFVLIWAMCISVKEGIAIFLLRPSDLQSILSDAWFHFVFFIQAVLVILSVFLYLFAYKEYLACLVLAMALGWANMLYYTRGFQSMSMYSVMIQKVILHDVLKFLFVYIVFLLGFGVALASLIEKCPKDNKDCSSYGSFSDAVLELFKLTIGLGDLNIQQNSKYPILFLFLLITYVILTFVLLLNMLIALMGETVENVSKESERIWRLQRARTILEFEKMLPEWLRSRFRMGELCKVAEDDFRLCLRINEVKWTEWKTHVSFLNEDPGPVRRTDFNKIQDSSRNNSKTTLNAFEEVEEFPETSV
# Assay: Whole-cell patch-clamp, spontaneous current of TRPV3 G573S mutant in HEK 293T cells
# Type: cell-based
# Details: −100 mV, read-out: IC50, inhibition of spontaneous current of TRPV3 G573S mutant
# Procedure: For electrophysiology recording and calcium measurement, 10 µM 74a (a TRPV3 inhibitor) was added about 6 h after transfection to inhibit channel activities and prevent cell death. First, the electrophysiology activities of the mutations were recorded using a whole-cell patch-clamp. Our data presented spontaneous TRPV3 currents when −100 mV to 100 mV ramp pulses were applied, which dramatically declined with the addition of 1 µM alpha-mangostin (Figure 4A).
# Figure 4 Alpha-mangostin inhibited the activity of hyperactive TRPV3 mutant channels and rescued mutation-induced cell death. (A) Alpha-mangostin inhibited the channel current in representative TRPV3 (G573S)- and TRPV3 (G573C)-expressing HEK 293T cells. […] Currents were normalized to the response at −100 mV before adding alpha-mangostin. (C) Alpha-mangostin inhibited TRPV3-mediated intracellular calcium increase in TRPV3 (G573S)-expressing HEK 293T cells. […] The bar graph on the right summarizes the change in the intracellular calcium rise inhibited by alpha-mangostin. […]
# In the whole-cell configuration, voltage ramps from −100 to +100 mV over 1 s were applied every 20 s and the holding potential was set at 0 mV. Sampling at 10 kHz and low-pass filtering at 5 kHz (w-c) were applied for all recorded currents. Recorded data were analyzed using Clampfit ver. […]
smiles,measurement,value
COc1c(O)cc2oc3cc(O)c(CC=C(C)C)c(O)c3c(=O)c2c1CC=C(C)C [Alpha-mangostin],IC50,2.04 ± 0.64 µM
